The source of these data is ChEMBL document CHEMBL1158408, “Large-scale application of high-throughput molecular mechanics with Poisson-Boltzmann surface area for routine physics-based scoring of protein-ligand complexes” (J Med Chem, 2009).

pKi: −log10 of the molar value.

For the experiment, the target named is Urokinase-type plasminogen activator (Homo sapiens, UniProt P00749).

`N=C(N)c1ccc2cc(C(=O)Nc3ccc4c(c3)CCC4)ccc2c1` showed a pKi of 6.40.

`N=C(N)NC(=O)c1nc(-c2ccoc2)c(NCCCc2ccccc2)nc1N`: the pKi is 6.50.

As to `N=C(N)c1ccc2cc(CCc3ccc(CN4CCCC4)cc3)cc(Nc3ncccn3)c2c1`, the pKi was 7.50.

Compound `NC1CCc2ccccc2C1` (configuration not stated) gave a pKi of 4.40.

In turn, `Nc1ccc2cc(NCCc3ccccc3)cc(Nc3ncccn3)c2n1` had a pKi of 5.30.

The compound `CN(C)Cc1ccc(/C=C/c2cc(Br)c3cc(C(=N)N)ccc3c2)o1` had a pKi of 5.90.

`N=C(N)c1ccc2cc(Nc3ncccn3)ccc2c1` showed a negative logarithm of the Ki (pKi) of 6.00.

Take `CC(C)C1=NCCc2ccc(NC(=O)c3cc(Nc4ncccn4)c4cc(C(=N)N)ccc4c3)cc21`: the pKi is 8.80.

As for `Nc1ccc2cc(O)cc(Nc3ncccn3)c2n1`, the pKi was 5.40.

The compound `N=C(N)c1ccc2cc(/C=C/CCc3cccnc3)cc(Br)c2c1` had a negative logarithm of the Ki (pKi) of 5.50.

As for `Nc1ccc2cccc(NS(=O)(=O)c3cc(Br)c(Br)s3)c2n1`, the pKi is 5.30.

With `N=C(N)c1ccc2cc(C(=O)Nc3ccc4c(c3)CCCN4)ccc2c1`, the pKi is 6.60.

The compound `CC(C)Oc1cccc(NC(=O)c2ccc(OCC(=N)N)c(Br)c2)c1` had a pKi of 5.10.

Compound `Nc1ccc2cc(NC(=O)c3ccccc3)ccc2n1` had a pKi of 5.00.

As for `N=C(N)c1ccc2cccc(C(=O)NO)c2c1`, the pKi was 5.20.

Regarding `C=COC(=O)Nc1cccc2ccc(N)nc12`, the pKi is 5.30.

`N=C(N)c1ccc2cc(C(=O)Nc3ccccc3)cc(C3CCOC3)c2c1` (configuration not stated) gave a negative-log Ki (pKi) of 7.00.

One may read the pKi as the Ki on a negative log10 scale, so that one unit is a factor of ten.
